Assay results as given in ChEMBL document CHEMBL1145204, “Carbonic anhydrase inhibitors: synthesis and inhibition of cytosolic/membrane-associated carbonic anhydrase isozymes I, II, and IX with sulfonamides incorporating hydrazino moieties” (J Med Chem, 2005).
pKi: −log10 of the molar value.

These compounds were tested against Carbonic anhydrase 1 (Homo sapiens, UniProt P00915).
Sequence of Carbonic anhydrase 1 (P00915 whole entry): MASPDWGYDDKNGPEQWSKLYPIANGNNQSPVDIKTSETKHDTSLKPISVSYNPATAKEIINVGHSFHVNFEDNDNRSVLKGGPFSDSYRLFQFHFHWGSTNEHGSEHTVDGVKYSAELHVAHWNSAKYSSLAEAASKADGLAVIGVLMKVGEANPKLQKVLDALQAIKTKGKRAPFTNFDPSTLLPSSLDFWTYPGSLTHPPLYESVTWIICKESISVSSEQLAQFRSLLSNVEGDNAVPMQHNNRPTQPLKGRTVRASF
Description: Inhibitory activity against Carbonic anhydrase I

Compound | pKi
NNc1ccc(S(N)(=O)=O)cc1 | 5.41

These compounds were tested against Carbonic anhydrase 9 (Homo sapiens, UniProt Q16790).
Description: Inhibitory activity against Carbonic anhydrase IX

Compound | pKi
COC(=O)c1ccccc1S(N)(=O)=O | 6.17
NS(=O)(=O)c1ccccc1C(=O)NNC(=O)NS(=O)(=O)c1ccc(F)cc1 | 7.19
Cc1ccccc1S(=O)(=O)NC(=O)NNC(=O)c1ccc(S(N)(=O)=O)cc1 | 7.49
Cc1ccc(S(=O)(=O)NC(=O)NNC(=O)c2ccccc2S(N)(=O)=O)cc1 | 7.15
Cc1ccc(S(=O)(=O)NC(=O)NNC(=O)c2ccc(S(N)(=O)=O)cc2)cc1 | 8.24
NS(=O)(=O)c1ccc(C(=O)NNC(=O)Nc2ccc(C34CC5CC(CC(C5)C3)C4)cc2)cc1 | 7.62
NNc1ccc(S(N)(=O)=O)cc1F | 6.87
NNc1ccc(S(N)(=O)=O)cc1Cl | 6.83
NS(=O)(=O)c1ccc(C(=O)NNC(=O)Nc2ccc(Oc3ccccc3)cc2)cc1 | 8.10
NS(=O)(=O)c1ccc(C(=O)NNC(=O)Nc2ccc(Cc3ccccc3)cc2)cc1 | 8.15
NS(=O)(=O)c1ccc(C(=O)NNC(=O)NC2c3ccccc3-c3ccccc32)cc1 | 7.89
NS(=O)(=O)c1ccc(C(=O)NNC(=O)NS(=O)(=O)c2ccc(Cl)cc2)cc1 | 8.27
NS(=O)(=O)c1ccc(C(=O)NNC(=O)Nc2ccc(Cl)c(Cl)c2)cc1 | 8.10
NS(=O)(=O)c1ccccc1C(=O)NNC(=O)NS(=O)(=O)c1ccccc1 | 7.12
Cc1ccccc1S(=O)(=O)NC(=O)NNC(=O)c1ccccc1S(N)(=O)=O | 7.08
NS(=O)(=O)c1ccccc1C(=O)NNC(=O)NS(=O)(=O)c1ccc(Cl)cc1 | 7.14
NS(=O)(=O)c1ccc(C(=O)NNC(=O)NS(=O)(=O)c2ccc(F)cc2)cc1 | 8.21
NS(=O)(=O)c1ccc(C(=O)NNC(=O)NS(=O)(=O)c2ccccc2)cc1 | 7.46
NNC(=O)c1ccccc1S(N)(=O)=O | 6.26
NS(=O)(=O)c1ccc(C(=O)NNC(=O)Nc2ccc(-c3ccccc3)cc2)cc1 | 8.27
CC(=O)c1ccc(NC(=O)NNC(=O)c2ccc(S(N)(=O)=O)cc2)cc1 | 8.08
NS(=O)(=O)c1ccc(C(=O)NNC(=O)Nc2ccc(Br)cc2)cc1 | 8.07
NS(=O)(=O)c1ccc(C(=O)O)cc1 [CARZENIDE] | 6.46
